Laboratory results reported in PubChem BioAssay (NCI).
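These data come from cells grown in 96-well plates and exposed to compound for 48 hours at five concentrations. Abbreviation: GI50, concentration required for 50% inhibition of growth. TGI is the concentration that stops growth completely.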

What was measured:
Assay in all cases: NCI anticancer screen, dose series, 48 h
A498 renal = test system: A498 renal
BT-549 breast = test system: BT-549 breast
CCRF-CEM leukemia = test system: CCRF-CEM leukemia
EKVX NSCLC = test system: EKVX NSCLC
HCT-15 colon = test system: HCT-15 colon
HS 578T breast = test system: HS 578T breast
K-562 leukemia = test system: K-562 leukemia
LOX IMVI melanoma = test system: LOX IMVI melanoma
MDA-MB-435 = test system: MDA-MB-435
PC-3 prostate = test system: PC-3 prostate
SR leukemia = test system: SR leukemia

Structure (SMILES)	TGI (A498 renal)	TGI (BT-549 breast)	TGI (CCRF-CEM leukemia)	TGI (EKVX NSCLC)	TGI (HCT-15 colon)	TGI (HS 578T breast)	TGI (K-562 leukemia)	TGI (LOX IMVI melanoma)	TGI (MDA-MB-435)	TGI (PC-3 prostate)	TGI (SR leukemia)	GI50 (A498 renal)	GI50 (EKVX NSCLC)	GI50 (HCT-15 colon)	GI50 (K-562 leukemia)	GI50 (MDA-MB-435)	GI50 (PC-3 prostate)	GI50 (SR leukemia)	GI50 (LOX IMVI melanoma)
COc1ccc(OC)c([N+](=O)[O-])c1-c1nc2sc(C)c(C)n2c1/C=N/N=C(N)N	> 100 µM	57.7 µM	> 100 µM	> 100 µM	> 100 µM	> 100 µM	> 100 µM	> 100 µM	> 100 µM	> 100 µM	> 100 µM	–	–	–	–	–	–	–	–
CC(C)=CC[C@H]1C[C@@]2(CC=C(C)C)C(=O)/C(=C(/O)c3ccccc3)C(=O)[C@](CC=C(C)C)(C2=O)C1(C)C	26.3 µM	35 µM	–	20 µM	26.5 µM	59.6 µM	50.4 µM	17 µM	26.2 µM	19.3 µM	> 100 µM	–	–	–	–	–	–	–	–
N=C(N)SCCN1CCCCC1	> 100 µM	64.9 µM	–	> 100 µM	> 100 µM	58.2 µM	62.1 µM	48.4 µM	52.7 µM	45.8 µM	60.1 µM	–	–	–	–	–	–	–	–
O=C(CSc1nc2ccc(I)cc2c(=O)n1Cc1ccccc1)NN1C(=O)CSC1c1ccccc1 (configuration not stated)	–	–	> 100 µM	86.2 µM	40.5 µM	–	> 100 µM	39.1 µM	69.6 µM	> 100 µM	> 100 µM	–	–	–	–	–	–	–	–
C[N+]1(C)C/C(=C\c2ccc(O)cc2)C(=O)/C(=C/c2ccc(O)cc2)C1	> 100 µM	–	> 100 µM	> 100 µM	> 100 µM	–	–	> 100 µM	–	–	> 100 µM	–	–	–	–	–	–	–	–
CC(=O)[C@]12OC(=O)C3=C1[C@H](CC[C@@H]3C)[C@@H](C)C[C@H]2C=C(C)C	15.1 µM	–	22.6 µM	–	15.5 µM	18.1 µM	13.2 µM	15.2 µM	16 µM	21.1 µM	16.8 µM	–	–	–	–	–	–	–	–
CCCCCCCCc1ccc(CCC(N)(CO)CO)cc1	22.6 µM	–	–	5.8 µM	3.42 µM	–	4.33 µM	–	3.45 µM	3.41 µM	4.28 µM	3.34 µM	2.36 µM	1680 nM	1.82 µM	1820 nM	1.75 µM	1390 nM	–
CC(=O)c1c(C)cc2cccc(OC3OC(CO)C(O)C(O)C3O)c2c1O (configuration not stated) (tested in a mixture with another compound)	> 100 µM	> 100 µM	> 100 µM	> 100 µM	> 100 µM	> 100 µM	> 100 µM	> 100 µM	> 100 µM	> 100 µM	> 100 µM	–	–	–	–	–	–	–	–
C=C(C[C@@H](O)[C@H](C)NC(=O)OCc1ccccc1)C(=O)OC(C)(C)C	> 100 µM	> 100 µM	61.7 µM	> 100 µM	> 100 µM	> 100 µM	> 100 µM	> 100 µM	> 100 µM	> 100 µM	> 100 µM	–	–	–	–	–	–	–	–
COc1cc(O)c2c(=O)c(OC)c(-c3ccc(OC)c(OC)c3)oc2c1.[Zn+2]	–	> 100 µM	–	> 100 µM	–	9.49 µM	> 100 µM	> 100 µM	–	> 100 µM	> 100 µM	–	25.7 µM	–	41.6 µM	–	9.18 µM	> 100000 nM	7.68 µM
CC(=O)Oc1cc(/C=C/c2ccc(O)cc2)cc(OC(C)=O)c1	85.5 µM	–	–	–	> 100 µM	> 100 µM	> 100 µM	–	> 100 µM	> 100 µM	48.7 µM	–	–	–	–	–	–	–	–
C[N+]1(c2ccccc2)C=C(c2ccccc2)SC1=S (configuration not stated)	46.7 µM	> 100 µM	–	> 100 µM	> 100 µM	> 100 µM	> 100 µM	> 100 µM	> 100 µM	> 100 µM	> 100 µM	–	–	–	–	–	–	–	–
CC[C@H]1C=CCC[C@@]2(C[C@@H]3CC[C@H]4[C@@H](C(=O)OCCCCCCCCCCCCCCCC(=O)N(CCCNC(C)=O)C[C@H](CCNC(C)=O)OC(C)=O)[C@@]5(CCC[C@@H](C)O5)NC(=[N+]34)N2)O1	3.27 µM	3.5 µM	–	2.09 µM	3.17 µM	4.83 µM	2.41 µM	3.16 µM	3 µM	2.26 µM	3.35 µM	–	–	–	–	–	–	–	–
Nc1ccc(S(=O)(=O)NCCS(=O)(=O)O)cc1	> 100 µM	> 100 µM	> 100 µM	> 100 µM	> 100 µM	> 100 µM	> 100 µM	> 100 µM	> 100 µM	> 100 µM	> 100 µM	–	–	–	–	–	–	–	–
NC(=S)N/N=C1\CC(c2ccccc2)Nc2ccccc21 (configuration not stated)	68.2 µM	–	> 100 µM	> 100 µM	> 100 µM	–	> 100 µM	> 100 µM	–	–	–	–	–	–	–	–	–	–	–
O=C(c1ccc(Cl)c(Cl)c1)N(C(=O)N1CCN(c2ccccc2)CC1)S(=O)(=O)c1ccccc1	> 100 µM	> 100 µM	> 100 µM	> 100 µM	59.1 µM	> 100 µM	> 100 µM	40.5 µM	> 100 µM	93.5 µM	> 100 µM	–	–	–	–	–	–	–	–
O=C(/C=C/c1ccc(O)cc1)c1cc(-c2cc(CCC(=O)c3ccc(O)cc3O)ccc2O)c(O)cc1O	> 50 µM	> 50 µM	43.6 µM	> 50 µM	> 50 µM	> 50 µM	48.4 µM	> 50 µM	> 50 µM	> 50 µM	29.5 µM	–	–	–	–	–	–	–	–
Cc1ncc(COP(=O)(O)O)c(C)c1O	> 100 µM	> 100 µM	–	> 100 µM	> 100 µM	> 100 µM	> 100 µM	> 100 µM	> 100 µM	> 100 µM	> 100 µM	–	–	–	–	–	–	–	–
CC(=O)C(N=NC1CCC(S(=O)(=O)NB2N=CS2)CC1)C(=O)Nc1ccccc1C (configuration not stated)	33.6 µM	–	> 100 µM	41.2 µM	22.3 µM	–	> 100 µM	–	–	–	> 100 µM	–	–	–	–	–	–	–	–
CCOc1ccc(N=Nc2ccc(-c3ccc(N=Nc4c(O)ccc5cc(S(=O)(=O)O)cc(S(=O)(=O)O)c45)cc3)cc2)cc1	–	> 100 µM	> 100 µM	> 100 µM	> 100 µM	> 100 µM	> 100 µM	–	> 100 µM	> 100 µM	> 100 µM	–	–	–	–	–	–	–	–
O=C1O/C(=C\C=C\CO)C=C1/C=C/CO	–	50.9 µM	60.3 µM	35.5 µM	30.8 µM	–	> 100 µM	> 100 µM	> 100 µM	42.5 µM	71.4 µM	–	–	–	–	–	–	–	–
